Measured values as given in patent US20060134693A1, “Olfactory cyclic nucleotide-gated channel cell-based assays to identify T1R and T2R taste modulators” (priority 2001, published 2006).

Tests used:
[1] = target: T1, human sweet receptor hT1R2/hT1R3 (Homo sapiens, UniProt Q7RTX0+Q8TE23); assay: Isoproterenol-induced calcium influx in HEK-293-oCNGC cells expressing hT1R2/hT1R3; type: cell-based; details: PTX 100 ng/ml for 4 hours; 200 nM isoproterenol; 5 mM Aspartame, 2 mM Cyclamate, 4 mM Saccharin, 0.1 mM Neotame; FIG. 15
T1 construct: host or cells: human embryonic kidney cells (earlier application U.S. Ser. No. 10/770,127)
T1 sequence (Q8TE23 20-839): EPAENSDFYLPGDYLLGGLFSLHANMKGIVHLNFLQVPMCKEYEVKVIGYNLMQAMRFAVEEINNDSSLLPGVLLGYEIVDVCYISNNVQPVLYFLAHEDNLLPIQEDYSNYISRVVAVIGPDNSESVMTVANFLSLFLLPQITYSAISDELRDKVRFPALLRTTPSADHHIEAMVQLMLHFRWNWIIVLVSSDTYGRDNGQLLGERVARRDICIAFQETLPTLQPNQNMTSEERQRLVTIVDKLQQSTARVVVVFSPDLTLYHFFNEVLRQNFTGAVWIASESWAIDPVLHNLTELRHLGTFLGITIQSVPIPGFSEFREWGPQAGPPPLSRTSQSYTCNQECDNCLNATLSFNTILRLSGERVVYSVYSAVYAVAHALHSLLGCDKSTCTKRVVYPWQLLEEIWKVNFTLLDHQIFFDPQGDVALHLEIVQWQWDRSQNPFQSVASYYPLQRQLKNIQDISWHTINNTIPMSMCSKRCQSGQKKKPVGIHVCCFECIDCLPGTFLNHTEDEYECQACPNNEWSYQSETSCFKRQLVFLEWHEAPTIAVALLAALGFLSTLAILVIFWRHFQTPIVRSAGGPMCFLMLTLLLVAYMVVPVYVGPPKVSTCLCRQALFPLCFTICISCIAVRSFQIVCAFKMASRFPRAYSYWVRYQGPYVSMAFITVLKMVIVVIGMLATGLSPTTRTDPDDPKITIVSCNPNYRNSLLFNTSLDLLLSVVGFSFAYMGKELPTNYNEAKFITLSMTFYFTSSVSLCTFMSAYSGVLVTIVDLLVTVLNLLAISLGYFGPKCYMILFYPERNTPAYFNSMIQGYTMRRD
T1 sequence (Q7RTX0 21-852): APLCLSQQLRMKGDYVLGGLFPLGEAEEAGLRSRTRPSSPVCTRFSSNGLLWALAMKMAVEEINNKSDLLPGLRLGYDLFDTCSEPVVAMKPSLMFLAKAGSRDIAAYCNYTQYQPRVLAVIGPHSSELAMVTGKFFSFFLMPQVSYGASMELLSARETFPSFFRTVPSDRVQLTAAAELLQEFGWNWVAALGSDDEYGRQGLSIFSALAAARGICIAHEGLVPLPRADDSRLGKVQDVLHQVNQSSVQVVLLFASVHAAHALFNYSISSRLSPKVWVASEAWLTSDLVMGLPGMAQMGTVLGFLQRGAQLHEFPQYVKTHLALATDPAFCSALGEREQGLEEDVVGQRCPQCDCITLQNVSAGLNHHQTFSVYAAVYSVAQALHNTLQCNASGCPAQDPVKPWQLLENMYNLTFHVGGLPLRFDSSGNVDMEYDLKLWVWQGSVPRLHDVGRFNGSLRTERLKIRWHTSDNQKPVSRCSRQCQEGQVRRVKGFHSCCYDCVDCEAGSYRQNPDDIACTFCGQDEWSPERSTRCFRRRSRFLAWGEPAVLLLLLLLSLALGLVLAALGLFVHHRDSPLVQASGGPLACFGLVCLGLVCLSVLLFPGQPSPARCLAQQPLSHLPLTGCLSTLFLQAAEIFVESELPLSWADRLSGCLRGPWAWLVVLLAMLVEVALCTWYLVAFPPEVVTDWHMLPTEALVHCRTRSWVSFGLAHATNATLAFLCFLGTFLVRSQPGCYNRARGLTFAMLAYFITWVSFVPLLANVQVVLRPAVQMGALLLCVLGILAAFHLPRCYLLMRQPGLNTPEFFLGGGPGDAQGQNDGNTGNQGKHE
Experimental: FIG. 13 contains the result of an experiment showing that increasing concentrations of sweeteners inhibit the isoproterenol-induced-calcium influx in HEK 293-oCNGC cells expressing the human sweet receptor hT1R2/hT1R3. Delta F/F values were normalized to the fluorescence obtained after stimulation with 200 nM isoproterenol. Each value corresponds to the mean ± SD of a triplicate determination.
Cells were left untreated (control) or treated with PTX for 4 hours at 100 ng/ml prior to the experiment. Cells were then stimulated with 200 nM isoproterenol in the presence or absence of the indicated sweeteners (5 mM Aspartame, 2 mM Cyclamate, 4 mM Saccharin and 0.1 mM Neotame).
(§1) Modulation of oCNG activity by taste receptors is measured in a cell-based assay that detects changes in intracellular calcium (as described in earlier examples). In brief, human embryonic kidney cells stably expressing the OCNC1 and are β1b subunits of oCNGC are transiently or stably transfected with T1R or T2R receptor plasmids. Transfected cells are seeded into 384-well culture plates, and functional expression is allowed to proceed for about 24 to 48 hours. The cells are then incubated with a calcium specific fluorescent dye (Fluo-4 or Fura-2, available from Molecular Probes) that provides for fast, simple and reliable fluorimetric detection of changes in calcium concentration within the cell.
An experiment was conducted to assess the effect of various sweeteners (known to activate the human T1R2/T1R3 sweet receptor) on isoproterenol-induced calcium influx in HEK-293—oCNGC cells that express the human T1R2/T1R3 sweet receptor. As shown by the results in FIG. 13, increasing concentrations of sweetener inhibits isoproterenol-induced calcium influx in these cells. (In the figure, Delta F/F values were normalized to the fluorescence obtained after stimulation with 200 nM isoproterenol and each value corresponds to the means ± SD of a triplicate determination). […]

[2] = test system: untransfected HEK 293-oCNGC cells; assay: Isoproterenol-induced calcium influx in untransfected HEK 293-oCNGC cells; type: cell-based, human; details: for effect on isoproterenol-induced calcium influx: cells not expressing hT1R2/hT1R3, increasing concentrations, 200 nM isoproterenol, FIG. 14
Experimental: Delta F/F valves were normalized to the fluorescence obtained after stimulation with 200 nM isoproterenol. Each value corresponds to the mean ± SD of a triplicate determination.
as §1
An experiment was conducted to confirm that the effects of the sweeteners on calcium influx requires the expression of the sweet receptor.
In FIG. 14, it is shown that increasing concentrations of the tested sweeteners had no inhibitory effect on isoproterenol-induced calcium influx in untransfected HEK 293—oCNGC cells. Again, Delta F/F values were normalized to the fluorescence obtained after stimulation with 200 nM isoproternol and each value component to the mean ± SD of a triplicate determination).

[3] = target: T1, human sweet receptor hT1R2/hT1R3; details: prevented by pertussis toxin; cited from earlier work
bitter receptor mT2R05 = target: T2, bitter receptor mT2R05 (Mus musculus, UniProt Q9JKT4); assay: Isoproterenol-induced calcium influx in HEK-293-oCNGC cells expressing mT2R05; type: cell-based; details: 200 nM isoproterenol, FIG. 16
T2 construct: expressed in transfected cells; host or cells: HEK-293 stably expressing OCNC1 and β1b (HEK-293-oCNGC)
T2 sequence (Q9JKT4 1-300): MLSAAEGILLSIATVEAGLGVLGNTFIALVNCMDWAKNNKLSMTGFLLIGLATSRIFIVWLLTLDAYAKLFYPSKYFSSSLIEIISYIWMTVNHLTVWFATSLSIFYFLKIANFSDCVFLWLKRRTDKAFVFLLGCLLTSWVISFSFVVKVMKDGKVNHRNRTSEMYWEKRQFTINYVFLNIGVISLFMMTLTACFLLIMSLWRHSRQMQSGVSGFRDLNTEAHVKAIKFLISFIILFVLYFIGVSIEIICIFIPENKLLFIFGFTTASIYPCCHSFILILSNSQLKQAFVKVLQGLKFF
Experimental: Delta F/F values were normalized to the fluorescence obtained after stimulation with 200 nM isoproterenol. Each value corresponds to the mean +1-SD of a triplicate determination. Cells were also treated with PTX as described for the for the preceding figure.
as §1, with “cell. […]” for “cell.”
More specifically, it was shown that PTx prevented inhibition of calcium inluux even with increasing concentrations of cycloheximide in HEK-293—oCNGC cells expressing mT2R05. As in figures above, Delta F/F values were normalized to the fluorescence obtained after stimulation with 200 nM isoproterenol. […]

mT2R05 = target: T3, mT2R05 (Mus musculus, UniProt Q9JKT4); details: mT2R05-expressing cells; cited from earlier work
T3 construct: host or cells: human embryonic kidney cells (earlier application)
T3 sequence (Q9JKT4 1-300): T2 sequence (Q9JKT4 1-300)

[4] = test system: rat bitter receptors rT2R9; details: abolished by pertussis toxin; cited from earlier work
[5] = target: T4, mouse bitter receptor mT2R05 (Mus musculus, UniProt Q9JKT4); details: abolished by pertussis toxin; cited from earlier work
T4 construct: host or cells: human embryonic kidney cells (earlier application)
T4 sequence (Q9JKT4 1-300): T2 sequence (Q9JKT4 1-300)

hT1R1/hT1R3 = target: T5, hT1R1/hT1R3 (Homo sapiens, UniProt Q7RTX0+Q7RTX1); details: hT1R1/hT1R3-expressing cells; cited from earlier work
T5 construct: host or cells: human embryonic kidney cells (earlier application U.S. Ser. No. 10/770,127)
T5 sequence (Q7RTX1 21-841): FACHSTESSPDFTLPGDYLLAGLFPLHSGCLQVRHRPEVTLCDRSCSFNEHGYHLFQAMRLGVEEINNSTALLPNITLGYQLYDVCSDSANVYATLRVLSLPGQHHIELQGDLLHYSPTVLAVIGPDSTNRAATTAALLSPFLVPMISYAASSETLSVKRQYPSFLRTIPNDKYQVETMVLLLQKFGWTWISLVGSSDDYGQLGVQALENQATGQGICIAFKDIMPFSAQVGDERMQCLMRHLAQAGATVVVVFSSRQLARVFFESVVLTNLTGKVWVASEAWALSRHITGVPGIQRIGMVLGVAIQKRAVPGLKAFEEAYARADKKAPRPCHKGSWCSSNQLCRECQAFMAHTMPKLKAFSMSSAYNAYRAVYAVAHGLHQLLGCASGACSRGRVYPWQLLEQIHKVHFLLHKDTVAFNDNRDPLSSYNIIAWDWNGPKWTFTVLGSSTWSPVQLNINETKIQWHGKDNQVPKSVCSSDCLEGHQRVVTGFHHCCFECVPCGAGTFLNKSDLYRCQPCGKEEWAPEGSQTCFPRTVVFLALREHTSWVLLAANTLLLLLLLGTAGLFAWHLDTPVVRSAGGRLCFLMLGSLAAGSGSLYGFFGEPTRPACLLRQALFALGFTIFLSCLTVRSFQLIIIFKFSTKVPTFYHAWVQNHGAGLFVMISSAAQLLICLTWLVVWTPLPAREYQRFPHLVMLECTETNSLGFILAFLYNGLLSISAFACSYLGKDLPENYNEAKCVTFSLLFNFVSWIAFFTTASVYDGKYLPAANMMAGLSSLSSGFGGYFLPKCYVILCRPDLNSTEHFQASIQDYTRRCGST
T5 sequence (Q7RTX0 21-852): T1 sequence (Q7RTX0 21-852)

[6] = target: T6, human umami receptor hT1R1/hT1R3 (Homo sapiens, UniProt Q7RTX0+Q7RTX1); details: prevented by pertussis toxin; cited from earlier work
T6 sequence (Q7RTX1 21-841): T5 sequence (Q7RTX1 21-841)
T6 sequence (Q7RTX0 21-852): T1 sequence (Q7RTX0 21-852)

SMILES: COC(=O)[C@H](Cc1ccccc1)NC(=O)[C@H](CC(=O)O)NCCC(C)(C)C [neotame]
- inhibition of isoproterenol-induced calcium influx after PTx pretreatment [1]: prevented the inhibition
- effect on isoproterenol-induced calcium influx [2]: unaffected

SMILES: O=C1NS(=O)(=O)c2ccccc21 [saccharin]
- ERK1/2 activation [3]: activate ERK1/2
- inhibition of isoproterenol-induced calcium influx after PTx pretreatment [1]: prevented the inhibition
- effect on isoproterenol-induced calcium influx [2]: unaffected

SMILES: C[C@@H]1C[C@@H]([C@H](O)CC2CC(=O)NC(=O)C2)C(=O)[C@@H](C)C1 [cycloheximide]
- effect on isoproterenol-induced calcium influx after PTx treatment (bitter receptor mT2R05; cells treated with PTx): failed to inhibit isoproterenol-induced calcium influx
- effect on isoproterenol-induced calcium influx (bitter receptor mT2R05; increasing concentrations): inhibited isoproterenol-induced calcium influx
- inhibition of forskolin-induced cAMP accumulation (mT2R05): 70%
- ERK1/2 activation [4]: specifically activates ERK1/2
- ERK1/2 activation [5]: specifically activates ERK1/2
- response of mT2R05 untransfected cells ([2]; untransfected HEK 293-oCNGC cells, FIG. 16): did not respond

SMILES: N[C@@H](CCC(=O)O)C(=O)[O-].[Na+] [monosodium glutamate]
- decrease of basal levels of cAMP (hT1R1/hT1R3): 50%
- ERK1/2 activation [6]: exclusively activates ERK1/2

SMILES: N[C@H](Cc1c[nH]c2ccccc12)C(=O)O [D-tryptophan]
- ERK1/2 activation [3]: activate ERK1/2

SMILES: OC[C@H]1O[C@@](CO)(O[C@H]2O[C@H](CO)[C@@H](O)[C@H](O)[C@H]2O)[C@@H](O)[C@@H]1O [sucrose]
- ERK1/2 activation [3]: activate ERK1/2
